These results are taken from US7989188B2, “Conjugates for cancer therapy and diagnosis” (BioSight Ltd., priority 2004, dated 2011).

As usually defined, the LD50 is the dose expected to kill half of the subjects tested. In general, mortality refers to the share of the test organisms that died. A higher mortality goes with fewer survivors.

For data set [1], the system named is human mammary duct carcinoma xenograft MX-1. Briefly: Anti-tumor activity, MX-1 xenograft murine model, oral gavage. In kind it is in vivo, mice. The following applies: PO gavage 200 mg/kg, seven administrations at 3-days inter-dosing intervals. As for the experimental part: The compounds were administered to mice following about 3-6 hours food deprivation prior to dosing, using a suitable stainless steel feeding needle. Following dosing, food was withheld for further 1-2 hours.
Dose and Volume Dosage: 50 mg/kg reference item and 200 mg/kg of Asp(5-FU). In all instances, volume dosage was 10 ml/kg.
Frequency and Duration: Treatment with Control, Test or Reference Items was carried out as 1× daily injection at 3-days inter-dosing intervals×7 (days 1-25).

Data set [2] concerns MX-1 human mammary duct carcinoma. Briefly: Anti-tumor activity, MX-1 xenograft murine model, intravenous treatment. In kind it is in vivo, BALB/c nude mice. The following applies: for increase in tumor volume at the end of the study period: injected Days 10, 14 and 18, Asp(5-FU) 50 and 100 mg/kg, 5-FU 26 mg/kg, saline 170%. As for the experimental part:
The potential anti-tumor activity of Asp(5-FU) was assessed based on the relative growth inhibition of human mammary duct carcinoma, MX-1 murine model.
Propagation of Tumor Material (MX-1 fragments): The Mammary Xenograft-1 (MX-1) is a human derived mammary duct carcinoma, supplied by the National Cancer Institute (NCI). The tissue was kept frozen until the time of implantation. The fragments (one to each animal in the study) were prepared according to the NCI recommended transplantation protocol.
Each vial containing 5 to 6 fragments was rapidly thawed (60-90 seconds) in a water bath at 37-40° C. The frozen fragments were implanted immediately after thawing.
Two fragments were implanted close to each other at the same sub-axillary incision site of each animal assigned to the propagation phase. The mass doubling time of the MX-1 tumor during the logarithmic phase was 4-5 days post implantation. Subsequently, another 2 fragments were implanted into each of 6 animals to achieve at least a total of 20 implanted fragments.
At the end of the logarithmic phase, the donor animals were sacrificed, the tumors were excised, dissected and transferred to a sterile Petri dish placed over ice and cut into approximately 20 fragments (about 2×2×2 mm each) for their transplantation into 10 naïve mice. A total of 42 tumor fragments were transplanted at the end of the second propagation phase. No more than 30 minutes elapsed from the time the tumor was removed from the donor animals until transplantation.
Tumor Induction and Monitoring (Pre-Treatment): Upon completion of the propagation phase, tumor fragments measuring about 2×2×2 mm each, were implanted subcutaneously (SC) into the right flank of each test animal assigned to the main study. Tumor growth was monitored twice weekly and the total SC mass (mm^3) determined on the basis of width and length measurement using micrometer calipers. […]
Tumor volume changes were determined using the following equation: V (mm^3)=d^2 (mm^2)×D (mm)/2 wherein d and D represent the smallest and the largest perpendicular tumor diameters respectively. […]
Body Weight: Individual body weights were determined prior to MX-1 fragment transplantation and thereafter once weekly until initiation of treatment. Following initiation of treatment individual body weights were determined twice weekly until the scheduled study termination or in case of removal of animals from the study due to animal welfare reasons, at the time of death.
Necropsy Procedures and Macroscopic Examination: Necropsy was performed on all animals including those removed from the study for animal welfare reasons and all surviving 10 days after the last dosing session (Groups 1, 2 & 3), following euthanasia. […] All gross pathological changes were recorded. […]

The nature of data set [3]: Acute toxicity (MTD), single administration by oral gavage. The following applies: mouse, in vivo, po. As for the experimental part:
(§1) OBJECTIVE: To determine the Maximum Tolerated Dose (MTD) of the test product, Asp(5-FU), following a single administration by oral gavage (PO) to mice.
(§2) This experiment was performed essentially according to Example 22 supra, with the exception that the test agent and the controls were administered orally, by oral gavage. Asp(5-FU) was suspended in corn oil and administered by single oral gavage (PO), at 2 dose levels of 200 and 400 mg/kg, to 2 test groups. An additional equally sized group was administered the vehicle (corn oil) and served as control. In all instances the volume dosage was 10 ml/kg.

Data set [4] has as its system mice. The description is as above. The following applies: single PO 200 and 400 mg/kg. As for the experimental part:
as §1, §2

The nature of data set [5]: Acute intravenous (IV) toxicity, single injection, MTD and LD50. The following applies: female, BALB/c, mouse, in vivo, iv. As for the experimental part: (§3) Purpose: To measure the potential acute intravenous (IV) toxicity of Asp(5-FU) in mice, estimated by Maximum Tolerated Dose (MTD) and 50% Lethal Dose (LD50).
(§4) Method: The potential acute intravenous (IV) toxicity of the Asp(5-FU) was assessed in groups of BALB/c female mice of 5 mice per group, in order to establish appropriate MTD levels towards a projected series of various anti-tumorigenic efficacy trials.
(§5) Asp(5-FU) was administered as single IV injections at three dose levels of 80, 150 and 200 mg/kg. One group was administered with saline served as control. In all instances, freshly prepared solutions were injected at a constant volume of 10 ml/kg.

The next data set relates to BALB/c female mice. Described as above. As for the experimental part:
as §3, §4, §5

A short description of data set [6]: In-vitro toxicity profile, MTT cell viability. In kind it is cell-based. The following applies: human, HUVEC (human umbilical vein endothelial cells, normal), healthy cells (HUVEC), at the concentration of 5-FU that resulted in 90% mortality (IC90), FIG. 2. As for the experimental part: (§6) Materials and Methods: Human umbilical vein endothelial cells (HUVEC, normal) cells were grown in M199 medium supplemented with 20% fetal calf serum (FCS), vitamins, 1 ng/ml hbFGF, and antibiotics at […], 5% CO2. Human melanoma cells (WW-94, cancer) cells were grown in 50% DMEM/50% F-12 medium supplemented with 10% fetal calf serum and antibiotics.
(§7) The cells were seeded in a 96-well ELISA dish at a concentration of 10,000-20,000 cells/well. The conjugates were added at concentrations that cause IC50 (50% lethality, FIG. 1), or IC90 (90% lethality, FIG. 2) by 5-FU. The cells were incubated for 72 hours at 37° C. and 5% CO2. After 72 hours the medium was aspirated, and DMEM containing 5% FCS and 0.5 mg/ml MTT (3-(4,5-Dimethyl-2-thiazolyl)-2,5-diphenyl-2H-tetrazolium bromide, an indicator of cell viability) was added. The cells were incubated for 2-4 hours at 37° C. and 5% CO2, washed with phosphate buffer saline (PBS) and dissolved in dimethylsulfoxide (DMSO). The results were analyzed using Techan ELISA reader equipped with a 570 nm filter. The results are represented as % of cell mortality.

The test system of data set [7] is Human umbilical vein endothelial cells (HUVEC, normal). Briefly: In-vitro toxicity profile, MTT cell viability. In kind it is cell-based. The following applies: normal cells (HUVEC), 72 hours, at the concentration of 5-FU that causes 50% mortality (IC50), FIG. 1. As for the experimental part:
as §6, §7

For data set [8], the system named is mice. The following applies: NIH report; cited from earlier work.

SMILES strings stand for the structures. Where only a bound is given, the exact number is not on record here.

Turning to `NC(CC(=O)n1cc(F)c(=O)[nH]c1=O)C(=O)O` [Asp(5-FU), L-aspartic acid-beta-1N-(2,4-dioxo-5-fluoropyrimidine)], in data set [1], the “progressive tumor development compared to corn oil controls” value is on record as “relative decrease in progressive tumor development”. Besides, the “tumor progression compared to controls” value in data set [2] (Asp(5-FU) 50 and 100 mg/kg, tumor volume, FIG. 5) was “significant reduction in tumor progression”. The “tumor weight upon necropsy compared to 5-FU and saline control” value in data set [2] (end of treatment period, FIG. 6) is on record as “significant decrease”. Besides, the “increase in tumor volume at the end of the study period” value in [2] is listed as 104%. In [3], this compound returned an MTD at 14 days of more than 400 mg/kg. The “gross pathological findings at scheduled necropsy” value in the data set on mice [4] is “No gross pathological findings”; in the data set with BALB/c female mice (single IV 80, 150 and 200 mg/kg) it was “No gross pathological findings”. Besides, in the data set with mice [4] (14-day observation period), the “clinical signs in reaction to dosing” value is on record as “No noticeable clinical signs”. Moreover, the LD50 in data set [5] was 200 mg/kg. Further, in [5], the MTD amounted to 160 mg/kg. Besides, the “less toxic than 5-FU” value in the data set on BALB/c female mice (female, BALB/c, mouse, in vivo) is recorded as 600%. In addition, the Incidence of mortality in the data set with BALB/c female mice (single IV injection, high-dose group 200 mg/kg, immediate post-dosing period) is on record as 3/5. Moreover, the clinical signs entry in the data set on BALB/c female mice (single IV, high-dose 200 mg/kg, survivors or decedents respectively) was “brief decreased motor activity or lateral recumbency”; with BALB/c female mice (single IV, intermediate- and low-dose 150 & 80 mg/kg), “No obvious clinical signs”. For the same compound, the “Mean group body weight” value in the data set on BALB/c female mice (single IV, intermediate-dose group, Day 8, p<0.01, full recovery Day 8-15) was “transient reduced body weight”. The mortality at 72 h in [6] worked out at 20%. For the same compound, the “% of cell mortality” value in data set [7] is “did not kill normal cells”.

As for `O=c1[nH]cc(F)c(=O)[nH]1` [Compound 5-FU, 2,4-dioxo-5-fluoropyrimidine], in the data set on mice [8], the LD50 is listed as 81 mg/kg and the MTD is 24 to 26 mg/kg. Moreover, the “increase in tumor volume at the end of the study period” value in data set [2] is 185%.
